Two compounds from patent US9771353B2, “Kinase inhibitors based upon N-alkyl pyrazoles” (RESPIVERT LIMITED, priority 2013, dated 2017) can be followed below.

Like-named read-outs stand apart in the source and are kept apart here.

Assay [1] deals with d-U937 cells. Nature of the assay: LPS-induced TNFα/IL-8 release in d-U937 cells, assay (a). Type of assay: cell-based. To be noted: Homo sapiens, LPS-stimulated dU937 cells. On the procedure: U937 cells, a human monocytic cell line, are differentiated to macrophage-type cells by incubation with phorbol myristate acetate (PMA; 100 ng/mL) for 48 to 72 hr. Cells are pre-incubated with final concentrations of test compound for 2 hr and are then stimulated with 0.1 μg/mL of LPS (from E. Coli: O111:B4, Sigma) for 4 hr. The supernatant is collected for determination of TNFα and IL-8 concentrations by sandwich ELISA (Duo-set, R&D systems). The inhibition of TNFα production is calculated as a percentage of that achieved by 10 μg/mL of BIRB796 at each concentration of test compound by comparison against vehicle control. The relative 50% effective concentration (REC50) is determined from the resultant concentration-response curve. The inhibition of IL-8 production is calculated at each concentration of test compound by comparison with vehicle control.

For another assay, the target named is Syk (Homo sapiens (Human), UniProt P43405). Nature of the assay: Syk enzyme inhibition (FRET, Z-LYTE). The format is biochemical. On the procedure: (§1) The enzyme inhibitory activities of compounds disclosed herein are determined by FRET using synthetic peptides labelled with both donor and acceptor fluorophores (Z-LYTE, Invitrogen Ltd., Paisley, UK).
The inhibitory activities of compounds of the invention against c-Src and Syk enzymes (Invitrogen), are evaluated in a similar fashion to that described hereinabove. The relevant enzyme (3000 ng/mL or 2000 ng/mL respectively, 2.5 μL) is incubated with the test compound (either 4 μg/mL, 0.4 μg/mL, 0.04 μg/mL, or 0.004 μg/mL, 2.5 μL each) for 2 hr at RT. The FRET peptides (8 μM, 2.5 μL), and appropriate ATP solutions (2.5 μL, 800 μM for c-Src, and 60 μM ATP for Syk) are then added to the enzymes/compound mixtures and incubated for 1 hr. Development reagent (protease, 5 μL) is added for 1 hr prior to detection in a fluorescence microplate reader (Varioskan® Flash, ThermoFisher Scientific).
(§2) In all cases, the site-specific protease cleaves non-phosphorylated peptide only and eliminates the FRET signal. Phosphorylation levels of each reaction are calculated using the ratio of coumarin emission (donor) over fluorescein emission (acceptor), for which high ratios indicate high phosphorylation and low ratios indicate low phosphorylation levels.

The test system of a further assay is PBMCs. Description: LPS-induced TNFα/IL-8 release in PBMC cells, assay (b). Type of assay: cell-based. The conditions noted are these: Homo sapiens, LPS-stimulated PBMCs, read-out: IC50 Values for Inhibition of Cytokine Release, PBMCs IL-8. The procedure: Peripheral blood mononuclear cells (PBMCs) from healthy subjects are separated from whole blood using a density gradient (Lymphoprep, Axis-Shield Healthcare). The PBMCs are seeded in 96 well plates and treated with compounds at the desired concentration for 2 hours before addition of 1 ng/mL LPS (Escherichia Coli 0111:B4 from Sigma Aldrich) for 24 hours under normal tissue culture conditions (37° C., 5% CO2). The supernatant is harvested for determination of IL-8 and TNFα concentrations by sandwich ELISA (Duo-set, R&D systems) and read on the fluorescence microplate reader (Varioskan® Flash, ThermoFisher Scientific).

The target in another assay is GSK3α (Homo sapiens (Human), UniProt P49840). Nature of the assay: GSK 3α enzyme inhibition (FRET, Z-LYTE), Method 2. The format is biochemical. The procedure: as §1
The inhibitory activities of compounds of the invention against the GSK 3α enzyme isoform (Invitrogen), are evaluated by determining the level of activation/phosphorylation of the target peptide. The GSK3-α protein (500 ng/mL, 2.5 μL) is mixed with the test compound (2.5 μL at either 4 μg/mL, 0.4 μg/mL, 0.04 μg/mL, or 0.004 μg/mL) for 2 hr at RT. The FRET peptide (8 μM, 2.5 μL), which is a phosphorylation target for GSK3α, and ATP (40 μM, 2.5 μL) are then added to the enzyme/compound mixture and the resulting mixture incubated for 1 hr. Development reagent (protease, 5 μL) is added for 1 hr prior to detection in a fluorescence microplate reader (Varioskan® Flash, ThermoFisher Scientific).
as §2
This method follows the same steps as Method 1 above, but utilises a shorter period of mixing of the test compound (105 minutes instead of 2 hours) with the GSK3-α protein.

The subject of assay [2] is d-U937 cells. Description: Accumulation of β catenin in d-U937 cells, assay (m). The format is cell-based, human. The procedure: U937 cells, a human monocytic cell line, are differentiated into macrophage-type cells by incubation with PMA; (100 ng/mL) for between 48 to 72 hr. The cells are then incubated with either final concentrations of test compound or vehicle for 18 hr. The induction of β-catenin by the test compounds is stopped by replacing the media with 4% formaldehyde solution. Endogenous peroxide activity is neutralised by incubating with quenching buffer (100 μL, 0.1% sodium azide, 1% H2O2 in PBS with 0.05% Tween-20) for 20 min. The cells are washed with washing buffer (200 μL; PBS containing 0.05% Tween-20) and incubated with blocking solution (200 μL; 5% milk in PBS) for 1 hr, re-washed with washing buffer (200 μL) and then incubated overnight with anti-β-catenin antibody solution (50 μL) in 1% BSA/PBS (BD, Oxford, UK).
After washing with washing buffer (3×200 μL; PBS containing 0.05% Tween-20), cells are incubated with an HRP-conjugated secondary antibody solution (100 μL) in 1% BSA/PBS (Dako, Cambridge, UK) and the resultant signal is determined colourimetrically (OD: 450 nm with a reference wavelength of 655 nm) using TMB substrate (50 μL; R&D Systems, Abingdon, UK). This reaction is stopped by addition of 1N H2SO4 solution (50 μL). Cells are then washed with washing buffer and 2% crystal violet solution (50 μL) is applied for 30 min. After washing with washing buffer (3×200 μL), 1% SDS (100 μL) is added to each well and the plates are shaken lightly for 1 hr prior to measuring the absorbance at 595 nm (Varioskan® Flash, Thermo-Fisher Scientific).
The measured OD450-655 readings are corrected for cell number by dividing the OD450-655 by the OD595 readings. The percentage induction for each well is calculated relative to vehicle, and the ratio of induction normalised in comparison with the induction produced by a standard control comprising of N-(4-(4-(3-(3-tert-butyl-1-p-tolyl-1H-pyrazol-5-yl)ureido)naphthalen-1-yloxy)pyridin-2-yl)-2-methoxyacetamide (1 μg/mL) which is defined as 100%.

Where [3] appears, read: IL-8, read-out: IC50 Values for Inhibition of Cytokine Release, dU937 cells IL-8.
Setting [4] is: TNFα (method describes REC50 relative to BIRB796), read-out: IC50 Values for Inhibition of Cytokine Release, dU937 cells TNFα.
The mark [5] stands for this setting: 1 μg/mL test compound, normalised to reference N-(4-(4-(3-(3-tert-butyl-1-p-tolyl-1H-pyrazol-5-yl)ureido)naphthalen-1-yloxy)pyridin-2-yl)-2-methoxyacetamide.
Where [6] appears, read: 5 μg/mL test compound, normalised to the same reference compound.

Chain of GSK3α (P49840 whole entry, canonical isoform): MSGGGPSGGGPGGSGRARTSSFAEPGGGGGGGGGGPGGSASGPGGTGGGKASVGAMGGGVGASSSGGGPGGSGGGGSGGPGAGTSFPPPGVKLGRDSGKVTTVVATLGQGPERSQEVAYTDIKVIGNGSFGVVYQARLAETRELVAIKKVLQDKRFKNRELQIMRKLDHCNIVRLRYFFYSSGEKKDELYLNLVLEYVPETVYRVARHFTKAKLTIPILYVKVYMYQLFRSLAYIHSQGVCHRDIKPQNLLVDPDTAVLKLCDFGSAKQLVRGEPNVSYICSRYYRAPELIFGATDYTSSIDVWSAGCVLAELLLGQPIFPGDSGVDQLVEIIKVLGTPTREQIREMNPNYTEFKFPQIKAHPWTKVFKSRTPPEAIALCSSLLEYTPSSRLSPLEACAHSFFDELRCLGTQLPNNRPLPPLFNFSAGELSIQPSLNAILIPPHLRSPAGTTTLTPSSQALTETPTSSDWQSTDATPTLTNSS

As for `C#Cc1cc(Nc2nccc(Oc3ccc(NC(=O)Nc4cc(C(C)(C)C)nn4C)c4ccccc34)n2)cc(C(=O)NCCN2CCOCC2)c1` [Example 1, 3-((4-((4-(3-(3-(tert-Butyl)-1-methyl-1H-pyrazol-5-yl)ureido)naphthalen-1-yl)oxy)pyrimidin-2-yl)amino)-5-ethynyl-N-(2-morpholinoethyl)benzamide], the half-inhibitory concentration (IC50) was found to be 6.7 nM in the assay on d-U937 cells [1] (setting [3]); 2.4 nM with d-U937 cells [1] (setting [4]); 149 nM on Syk; 1.6 nM in the assay on PBMCs; 499 nM against GSK3α. Further, the figures for the “% β-catenin induction” value with d-U937 cells [2] (setting [5]) and in the assay with d-U937 cells [2] (setting [6]) were −1.5% and 10.5%, respectively.

Take `COCCOCCOCCOc1cc(Nc2nccc(Oc3ccc(NC(=O)Nc4cc(C(C)(C)C)nn4C)c4ccccc34)n2)cc(OC)c1` [Example 2, 1-(3-(tert-Butyl)-1-methyl-1H-pyrazol-5-yl)-3-(4-((2-((3-methoxy-5-(2-(2-(2-methoxy-ethoxy)ethoxy)ethoxy)phenyl)amino)pyrimidin-4-yl)oxy)naphthalen-1-yl)urea]: the IC50 in the assay on d-U937 cells [1] (setting [3]) worked out at 1 nM; with d-U937 cells [1] (setting [4]), 2 nM; on Syk, 543 nM; in the assay on PBMCs, 3.6 nM; against GSK3α, 5230 nM. Moreover, the “% β-catenin induction” value in the assay with d-U937 cells [2] (setting [5]) was −2%; with d-U937 cells [2] (setting [6]), 6.5%; in the assay on d-U937 cells [2] (10 μg/mL test compound, normalised to the same reference compound), 4.5%.

A word on the IC50: it is the concentration that inhibits the measured activity by half.
